In patent US9480649B2, “Lipid microparticle growth factor formulations” (Biopharm Gesellschaft zur biotechnologischen Entwicklung …, priority 2006, dated 2016):
In brackets after ≈: the same amount, converted by molar mass. Read-outs that look alike come from different tables or passages of the source. Peptide text beside a SMILES is read from it.

Key:
[1] = cited from earlier work
[2] = for concentration prepared and stabilized using the lipid microparticle formulation: pH 7
Description: The tube was vortexed briefly. • c. The sample was placed in an ice-ethanol bath to maintain a temperature of approximately 4° C. • d. The tip of a probe sonicator was placed just above the bottom of the microcentrifuge tube. It was confirmed that the sonicator tip was not touching the sides or the bottom of the tube. • e. The sample was sonicated for 2 h at setting 10 on a 25% duty cycle with a period of 20 sec, producing an average power output of 22 watts. • f. The ice-ethanol bath was changed every 12 min to maintain temperature. • g. […] The solution was centrifuged for 4 min at 12,000 rpm to remove any metal particulates left by the probe tip. • i. 1 ml of the LMP was transferred to a clean 1.5 microcentrifuge tube.
Polyphenols are a group of chemical substances found in plants, characterized by the presence of more than one phenol group per molecule. The term comprises tannins, lignins and flavonoids. […] Myricetin (C15H10O8, MW 318.24) is a naturally occurring flavonoid found in many food sources known to have antioxidant and anti-inflammatory properties. […] Despite its therapeutic potential, myricetin has very limited water solubility. […] In an effort to increase the solubility of myricetin to enhance its therapeutic potential, myricetin was incorporated into lipid microparticles as follows: • j. 1 mg myricetin was added to the tube and vortexed to combine. […] The myricetin mixture was again placed over the ice-ethanol bath and fitted with the probe sonicator. • l. The mixture was sonicated on the same settings for 2.5 h, again replacing the ice-ethanol bath every 12-15 min. • m. […] The solution was centrifuged again for 5 min at 12,000 rpm to remove any metal particulates. • o. The solution was then titrated to pH 7 with 1 M NaOH.
In an effort to increase solubility, Vitamin E was incorporated into lipid LMP as follows: • j. 5 uL (4.65 mg) of vitamin E was added to the tube and vortexed to combine. • k. The Vitamin E mixture was placed over the ice-ethanol bath again and fitted with the probe sonicator. • l. The mixture was sonicated on the same settings for 2.5 h, again replacing the ice-ethanol bath every 12-15 min. • m. […] The solution was centrifuged again for 4 min at 12,000 rpm to remove any metal particulates. • o. The solution was then titrated to pH 7 with 1 M NaOH.
In an effort to increase the solubility of Leu-Leu-Leu to enhance it's therapeutic potential, Leu-Leu-Leu was incorporated into lipid microparticles as follows: • j. 8 mg Leu-Leu-Leu was added to the tube and vortexed to combine. […] The Leu-Leu-Leu mixture was again placed over the ice-ethanol bath and fitted with the probe sonicator. • l. The mixture was sonicated on the same settings for 2.5 h, again replacing the ice-ethanol bath every 12-15 min. • m. […] The solution was centrifuged again for 5 min at 12,000 rpm to remove any metal particulates. • o. The solution was then titrated to pH 7 with 1 M NaOH.

Solubility in water = type: physicochemical; conditions: based on our own results
[3] = Solubility of GDF-5 in organic solvents (RP-HPLC of supernatant after centrifugation); type: physicochemical; conditions: dichlormethane, acetonitrile and DMSO solutions, centrifuged
Source text: The inventors of the present application have proceeded with an extensive investigation in order to overcome the above described problems. […] Hydrophobic drugs are very often highly soluble in the volatile organic solvents. […] After adding GDF-5, dichlormethane, acetonitrile and DMSO solutions were centrifuged and the GDF-5 content of the supernatant was checked with RP-HPLC.
After adding GDF-5, solutions were centrifuged and the GDF-5 content of supernatant was checked with RP-HPLC.

[4] = system: cultured midbrain neurons; conditions: cited from earlier work
[5] = rat, in vivo
Description: Rats were anesthetized with sodium pentobarbital (50 mg/kg intraperitoneal), and given additional doses as needed. Rats were placed on their back, and body temperature was maintained with a heating pad (rectal thermal probe set at 37° C.). Prior to onset of drug delivery, the descending aorta was cannulated for all experimental groups.
GDF-5 Administration: GDF-5 was ^125I labelled and formulated in 20 mM sodium acetate buffer at a pH of 4.25. For intranasal administration, a mixture of ^125I-GDF-5 and unlabeled GDF-5 was delivered as 10 μL drops alternating nares every two minutes with an average total volume of 113 μL (7.0 nmol and 38 pCi). A second formulation of GDF-5 for intranasal delivery was prepared in 200 mM sodium acetate buffer at pH 4.0 and delivered as an average total volume of 91 μL (5.2 nmol, 28 uCi). For intravenous administration, a mixture of ^125I-GDF-5 and unlabeled GDF-5 was delivered as an injection into the tail vein. […]
Measurement of ^125I-labelled GDF-5 with gamma counting: Peripheral and CNS rat tissues were dissected into anatomical areas. […] The concentration of GDF-5 in each tissue sample (nM) was calculated using the counts per minute, tissue weight, and specific activity measurements from standard samples of the GDF-5 mixture delivered.

[6] = cited from earlier work; remark: listed apart in the source

Molecule: beta amyloid 1-42
- solubility in aqueous solution ([1]; pH 3): very soluble
- solubility in aqueous solution ([1]; pH 7): essentially insoluble
- solubility in aqueous solution ([1]; physiological pH, e.g., pH 7.4): very low solubility

Molecule: Vitamin E
- increase of aqueous solubility at neutral pH using the LMP formulation [2]: increased greatly
- concentration prepared and stabilized using the lipid microparticle formulation [2]: 4650 µg/mL

Molecule: O=c1c(O)c(-c2cc(O)c(O)c(O)c2)oc2cc(O)cc(O)c12 [myricetin]
- increase of aqueous solubility at neutral pH using the LMP formulation [2]: 15.4 fold
- concentration prepared and stabilized using the lipid microparticle formulation ([2]; 2.5 h): 1000 µg/mL
- solubility (Solubility in water): 65 µg/mL (≈ 0.204 mM)

Molecule: CC(C)C[C@H](NC(=O)[C@H](CC(C)C)NC(=O)[C@@H](N)CC(C)C)C(=O)O [Leu-Leu-Leu] (H-Leu-Leu-Leu-OH; N-terminus and C-terminus assumed)
- increase of aqueous solubility at neutral pH using the LMP formulation [2]: over three-fold
- concentration prepared and stabilized using the lipid microparticle formulation [2]: 8000 µg/mL
- solubility (Solubility in water): ~2500 µg/mL (≈ 6.99 mM)

Molecule: growth and differentiation factor-5 [GDF-5]
- retrieval percentage of GDF-5 in supernatant [3]: below 15%
- concentration at which neuroprotective effects have been demonstrated [4]: 1 nM
- blood exposure, intravenous relative to intranasal [5]: twice as great
- midbrain concentration, intravenous relative to intranasal [5]: less than half
- pH threshold for solubility ([6]; aqueous solutions of GDF-5): 4.3
- pH above which the protein starts precipitating ([6]; aqueous solutions, profile shown in EP 1 462 126): above 4.25
